Test results taken from BindingDB's records for doi:10.7270/Q2KP80J0 (The Scripps Research Institute Molecular Screening Center, 2007).
pIC50: −log10 of the molar value.

Target: T1, Ephrin type-B receptor 4 (Homo sapiens, UniProt P54760)
T1 sequence (P54760 whole entry): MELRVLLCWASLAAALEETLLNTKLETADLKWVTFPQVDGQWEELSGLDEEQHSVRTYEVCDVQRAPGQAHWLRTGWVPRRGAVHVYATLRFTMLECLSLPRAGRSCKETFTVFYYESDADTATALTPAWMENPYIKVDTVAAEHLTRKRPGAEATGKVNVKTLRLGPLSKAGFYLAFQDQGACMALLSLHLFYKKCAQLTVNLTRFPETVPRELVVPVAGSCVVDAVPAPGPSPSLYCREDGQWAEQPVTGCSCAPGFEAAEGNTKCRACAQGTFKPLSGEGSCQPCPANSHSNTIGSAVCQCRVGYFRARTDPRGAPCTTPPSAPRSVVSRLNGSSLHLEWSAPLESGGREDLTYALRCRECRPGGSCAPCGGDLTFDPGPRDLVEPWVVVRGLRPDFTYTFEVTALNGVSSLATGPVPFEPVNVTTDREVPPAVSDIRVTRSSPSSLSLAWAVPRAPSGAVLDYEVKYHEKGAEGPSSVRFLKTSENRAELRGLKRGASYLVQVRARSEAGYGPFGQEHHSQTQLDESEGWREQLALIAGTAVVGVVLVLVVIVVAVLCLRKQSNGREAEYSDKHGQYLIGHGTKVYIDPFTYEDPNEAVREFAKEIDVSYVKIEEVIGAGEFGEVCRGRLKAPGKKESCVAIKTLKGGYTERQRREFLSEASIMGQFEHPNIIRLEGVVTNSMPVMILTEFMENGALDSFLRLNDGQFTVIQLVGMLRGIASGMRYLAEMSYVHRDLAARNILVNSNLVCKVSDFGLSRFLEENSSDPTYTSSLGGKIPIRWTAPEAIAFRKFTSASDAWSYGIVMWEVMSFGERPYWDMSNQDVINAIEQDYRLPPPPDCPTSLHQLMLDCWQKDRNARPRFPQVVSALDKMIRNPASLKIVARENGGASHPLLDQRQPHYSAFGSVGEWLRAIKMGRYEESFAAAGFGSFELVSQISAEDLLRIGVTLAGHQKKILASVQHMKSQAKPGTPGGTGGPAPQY
Experiment: EphB4-ephrin-B2 interaction antagonists, dose response, biochemical, TNYL-RAW peptide displacement (AID 835)

Row | pIC50 | Compound
1 | < 4.10 | CCOC(=O)N1CCC(n2c(SCC(=O)NCCC3=CCCCC3)nc3ccccc3c2=O)CC1 [4-[2-[[2-[2-(1-cyclohexenyl)ethylamino]-2-oxoethyl]thio]-4-oxo-3-quinazolinyl]-1-piperidinecarboxylic acid ethyl ester]
2 | < 4.10 | CC(O)c1cccc(NC(=O)CCC(=O)O)c1 (configuration not stated) [4-[3-(1-hydroxyethyl)anilino]-4-keto-butyric acid]
3 | < 4.10 | O=S(=O)(N1CCOCC1)N1CCN(c2ccccc2F)CC1 [4-[4-(2-fluorophenyl)piperazin-1-yl]sulfonylmorpholine]
4 | < 4.10 | O=C(O)CCC(=O)N1CCN(c2nc(-c3ccccc3Cl)c3cc(Br)ccc3n2)CC1 [4-[4-[6-bromanyl-4-(2-chlorophenyl)quinazolin-2-yl]piperazin-1-yl]-4-oxidanylidene-butanoic acid]
5 | < 4.10 | CCOC(=O)c1ccc(NC(=S)NCC(O)c2ccccc2)cc1 (configuration not stated) [4-[(2-hydroxy-2-phenyl-ethyl)thiocarbamoylamino]benzoic acid ethyl ester]
6 | < 4.10 | COC(=O)c1ccc(NC(=O)CN2CCN(c3cccc(Cl)c3)CC2)cc1 [4-[[2-[4-(3-chlorophenyl)-1-piperazinyl]-1-oxoethyl]amino]benzoic acid methyl ester]
7 | < 4.10 | O=C(O)c1ccc(CSc2n[nH]c(-c3ccco3)n2)cc1 [4-[[5-(furan-2-yl)-1H-1,2,4-triazol-3-yl]sulfanylmethyl]benzoic acid]
8 | < 4.10 | Fc1ccc(Sc2cc(Cl)c(-c3ccccc3)nn2)cc1 [4-chloranyl-6-(4-fluorophenyl)sulfanyl-3-phenyl-pyridazine]
9 | 4.75 | O=C(NN=C1C(=O)c2cccc3cccc1c23)c1ccc(Cl)cc1 [4-chloranyl-N-[(2-oxidanylideneacenaphthylen-1-ylidene)amino]benzamide]
10 | < 4.10 | Cc1cccc2c(C(=O)O)c3c(nc12)CCCCC3 [4-methyl-7,8,9,10-tetrahydro-6H-cyclohepta[b]quinoline-11-carboxylic acid]
11 | < 4.10 | Cc1ccc(-n2ncc3c(=O)n(CC(=O)N4CCCCCC4)cnc32)cc1 [5-(2-azepan-1-yl-2-oxoethyl)-1-(4-methylphenyl)-1,5-dihydro-4H-pyrazolo[3,4-d]pyrimidin-4-one]
12 | < 4.10 | Cc1ccc(-c2ccc(C(=O)O)[nH]2)cc1 [5-(4-methylphenyl)-1H-pyrrole-2-carboxylic acid]
13 | < 4.10 | Oc1c(CN2CCCCC2)cc(COCc2ccccc2)c2cccnc12 [5-(benzoxymethyl)-7-(piperidinomethyl)quinolin-8-ol]
14 | < 4.10 | COC(=O)c1ccc(COc2ccc3c(C)c(C)c(=O)oc3c2C)o1 [5-[(2-keto-3,4,8-trimethyl-chromen-7-yl)oxymethyl]furan-2-carboxylic acid methyl ester]
15 | < 4.10 | CCCc1nnc(SCc2ccc(C(=O)OC)o2)n1N [5-[[(4-amino-5-propyl-1,2,4-triazol-3-yl)thio]methyl]-2-furancarboxylic acid methyl ester]
16 | < 4.10 | Cc1onc(-c2ccccc2)c1C(=O)Nc1ccc(S(=O)(=O)NC2=NCCCCC2)cc1 [5-methyl-3-phenyl-N-[4-(3,4,5,6-tetrahydro-2H-azepin-7-ylsulfamoyl)phenyl]-1,2-oxazole-4-carboxamide]
17 | < 4.10 | O=C(c1cnc2ccc(S(=O)(=O)N3CCC4(CC3)OCCO4)cc2c1O)N1CCOCC1 [6-(1,4-dioxa-8-azaspiro[4.5]dec-8-ylsulfonyl)-3-(morpholin-4-ylcarbonyl)quinolin-4(1H)-one]
18 | < 4.10 | Cc1cc(NC(c2ccc(Cl)cc2)c2ccc3cccnc3c2O)no1 (configuration not stated) [7-[(4-chlorophenyl)-[(5-methyl-1,2-oxazol-3-yl)amino]methyl]quinolin-8-ol]
19 | < 4.10 | Cc1cc(N2CCN(c3ccccn3)CC2)n2cc(-c3ccccc3)nc2n1 [7-methyl-2-phenyl-5-(4-pyridin-2-ylpiperazin-1-yl)imidazo[1,2-a]pyrimidine]
20 | < 4.10 | Cn1cc(Cl)c(C(=O)OCC(=O)Nc2ccccc2)n1 [(2-anilino-2-oxoethyl) 4-chloro-1-methylpyrazole-3-carboxylate]

Row | pIC50 | Compound
21 | < 4.10 | COc1ccccc1C1CC(c2c(O)nc3ccc(Cl)cc3c2-c2ccccc2)=NN1S(C)(=O)=O (configuration not stated) [(3Z)-6-chloranyl-3-[5-(2-methoxyphenyl)-1-methylsulfonyl-pyrazolidin-3-ylidene]-4-phenyl-quinolin-2-one]
22 | < 4.10 | CN1C(=O)S/C(=C/c2cccnc2)C1=O [(5E)-3-methyl-5-(3-pyridinylmethylidene)thiazolidine-2,4-dione]
23 | < 4.10 | O=C(/C=C/c1ccccc1Cl)NCc1ccccc1 [(E)-3-(2-chlorophenyl)-N-(phenylmethyl)-2-propenamide]
24 | < 4.10 | O=C(O)/C(=C\c1ccco1)NC(=O)c1cccc2ccccc12 [(E)-3-(furan-2-yl)-2-(naphthalene-1-carbonylamino)prop-2-enoic acid]
25 | < 4.10 | O=C(/C=C/c1cccc([N+](=O)[O-])c1)NCCN1CCOCC1 [(E)-N-(2-morpholin-4-ylethyl)-3-(3-nitrophenyl)prop-2-enamide]
26 | < 4.10 | CCOC(=O)c1c(C)oc2c1c1c(c3ccccc32)OCN(Cc2cccnc2)C1 [MLS000043717]
27 | < 4.10 | CCCCNC(=O)C1C2C=CC3(CN(Cc4ccccc4Cl)C(=O)C13)O2 (configuration not stated) [MLS000044497]
28 | < 4.10 | CCOC(=O)C1=C(c2ccccc2)N2C=CS(=O)(=O)NC2S1 (configuration not stated) [MLS000048572]
29 | < 4.10 | CN(c1ccccc1C(=O)Nc1ccccc1C(=O)NCc1ccco1)S(C)(=O)=O [MLS000049900]
30 | < 4.10 | O=C(NCCCN1CCCC1=O)NC12CC3CC(CC(C3)C1)C2 [MLS000050547]
31 | < 4.10 | CCCn1c(NC(=O)C2COc3ccccc3O2)nc2ccccc21 (configuration not stated) [MLS000053418]
32 | < 4.10 | O=C(NC(Cc1ccccc1)c1nc2ccccc2[nH]1)C1CC(=O)N(c2ccc3c(c2)OCCO3)C1 (configuration not stated) [MLS000053466]
33 | < 4.10 | CCn1c(CSc2nccn2C)nc2cc(C(=O)O)ccc21 [MLS000058666]
34 | < 4.10 | CCOc1cc(N2CCOCC2)c(OCC)cc1NC(=O)COc1cccc2cccnc12 [MLS000060380]
35 | < 4.10 | O=C(CSc1nnnn1Cc1ccccc1)Nc1ccc2c(c1)OCO2 [MLS000067975]
36 | < 4.10 | CCC(C)(C)NC(=O)C(c1ccco1)N(C(=O)c1csnn1)c1cccc(F)c1 (configuration not stated) [MLS000074093]
37 | < 4.10 | CC1(C)Cc2ccccc2-c2nnc(SCC(=O)Nc3nc4ccccc4s3)n21 [MLS000077330]
38 | < 4.10 | O=C(CN(Cc1cccs1)C(=O)CSc1nnc(COc2ccccc2)o1)NC1CCCC1 [MLS000077370]
39 | < 4.10 | O=S1(=O)c2cccc3cccc(c23)N1Cc1nnc(-c2ccccc2Br)o1 [MLS000081705]

Row | Compound | pIC50
40 | O=C1CN(C(=O)CN2CCCCC2)C(c2ccccc2)c2cc(Br)ccc2N1 (configuration not stated) [7-bromanyl-5-phenyl-4-(2-piperidin-1-ylethanoyl)-3,5-dihydro-1H-1,4-benzodiazepin-2-one] | < 4.10
41 | CCc1cccc2c(C#N)cn(CC(=O)N3CCOCC3)c12 [7-ethyl-1-[2-(4-morpholinyl)-2-oxoethyl]-1H-indole-3-carbonitrile] | < 4.10
42 | Cc1cc(OC(=O)c2ccco2)c2c3c(c(=O)oc2c1)CCCC3 [(3-methyl-6-oxidanylidene-7,8,9,10-tetrahydrobenzo[c]chromen-1-yl) furan-2-carboxylate] | < 4.10
